# Tested on: endonucleolytically active site of the Influenza A 2009 pandemic H1N1 PA subunit polypeptide fragment or variant thereof
# Assay: Co-crystallisation / X-ray structure: binding to the endonucleolytically active site
# Set-up: species or system Influenza A 2009 pandemic H1N1 virus
row,SMILES,ability to bind to the endonucleolytically active site
1,"O=C(O[C@@H]1Cc2c(O)cc(O)cc2O[C@@H]1c1cc(O)c(O)c(O)c1)c1cc(O)c(O)c(O)c1 [EGCG, [(2R,3R)-5,7-dihydroxy-2-(3,4,5-trihydroxyphenyl)chroman-3-yl]3,4,5-trihydroxybenzoate]",able to bind to the endonucleolytically active site
2,"O=C(O)/C(O)=C/C(=O)C1(Cc2ccc(Cl)cc2)CCN(CC2CCCCC2)CC1 [EMBL-R05-2, 4-[4-[(4-chlorophenyl)methyl]-1-(cyclohexylmethyl)-4-piperidinyl]-2-hydroxy-4-oxo-2-butenoic acid]",able to bind to the endonucleolytically active site
3,"O=C(O)/C(O)=C/C(=O)C1(Cc2ccc(Cl)cc2)CCCN(Cc2ccccc2)C1 (stereo not drawn) [EMBL-R05-3, 4-[3-[(4-chlorophenyl)methyl]-1-(phenylmethyl)-3-piperidinyl]-2-hydroxy-4-oxo-2-butenoic acid]",able to bind to the endonucleolytically active site

# From US9181307B2, “Influenza A 2009 pandemic H1N1 polypeptide fragments comprising endonuclease activity and their use” (priority 2010, dated 2015)
